Results taken from ChEMBL document CHEMBL1275296, “Synthesis and antimicrobial studies of thiazolotriazinones” (2010).
In brackets after ≈: the same amount, converted by molar mass. Activity calls are given as the source filed them. No cut-off for these calls is given here.

What was measured:
[1] = tested on: Staphylococcus aureus; assay: Antibacterial activity against Staphylococcus aureus after 24 hrs by broth dilution method; type: functional
[2] = tested on: Escherichia coli; assay: Antibacterial activity against Escherichia coli after 24 hrs by broth dilution method; type: functional
[3] = tested on: Aspergillus flavus; assay: Antifungal activity against Aspergillus flavus at >100 ug/mL after 48 hrs; type: functional, organism-based
[4] = tested on: Trichophyton mentagrophytes; assay: Antifungal activity against Trichophyton mentagrophytes by measuring inhibition zone after 48 hrs; type: functional
[5] = tested on: Trichophyton mentagrophytes; assay: Antifungal activity against Trichophyton mentagrophytes after 48 hrs; type: functional
[6] = tested on: Talaromyces marneffei; assay: Antifungal activity against Penicillium marneffei at >100 ug/mL after 48 hrs; type: functional, organism-based
[7] = tested on: Candida albicans; assay: Antifungal activity against Candida albicans by measuring inhibition zone after 48 hrs; type: functional
[8] = tested on: Candida albicans; assay: Antifungal activity against Candida albicans after 48 hrs; type: functional
[9] = tested on: Aspergillus fumigatus; assay: Antifungal activity against Aspergillus fumigatus by measuring inhibition zone after 48 hrs; type: functional
[10] = tested on: Aspergillus fumigatus; assay: Antifungal activity against Aspergillus fumigatus after 48 hrs; type: functional
[11] = tested on: Pseudomonas aeruginosa; assay: Antibacterial activity against Pseudomonas aeruginosa after 24 hrs by broth dilution method; type: functional
[12] = tested on: Klebsiella pneumoniae; assay: Antibacterial activity against Klebsiella pneumoniae after 24 hrs by broth dilution method; type: functional
[13] = tested on: Streptococcus pyogenes; assay: Antibacterial activity against Streptococcus pyogenes after 24 hrs by broth dilution method; type: functional
[14] = tested on: Staphylococcus aureus; assay: Antibacterial activity against Staphylococcus aureus after 24 hrs; type: functional
[15] = tested on: Escherichia coli; assay: Antibacterial activity against Escherichia coli after 24 hrs; type: functional
[16] = tested on: Pseudomonas aeruginosa; assay: Antibacterial activity against Pseudomonas aeruginosa after 24 hrs; type: functional
[17] = tested on: Klebsiella pneumoniae; assay: Antibacterial activity against Klebsiella pneumoniae after 24 hrs; type: functional
[18] = tested on: Streptococcus pyogenes; assay: Antibacterial activity against Streptococcus pyogenes after 24 hrs; type: functional
[19] = tested on: Aspergillus flavus; assay: Antifungal activity against Aspergillus flavus by measuring inhibition zone after 48 hrs; type: functional
[20] = tested on: Aspergillus flavus; assay: Antifungal activity against Aspergillus flavus after 48 hrs; type: functional
[21] = tested on: Trichophyton mentagrophytes; assay: Antifungal activity against Trichophyton mentagrophytes at >100 ug/mL after 48 hrs; type: functional, organism-based
[22] = tested on: Talaromyces marneffei; assay: Antifungal activity against Penicillium marneffei by measuring inhibition zone after 48 hrs; type: functional
[23] = tested on: Talaromyces marneffei; assay: Antifungal activity against Penicillium marneffei after 48 hrs; type: functional
[24] = tested on: Candida albicans; assay: Antifungal activity against Candida albicans at >100 ug/mL after 48 hrs; type: functional, organism-based
[25] = tested on: Aspergillus fumigatus; assay: Antifungal activity against Aspergillus fumigatus at >100 ug/mL after 48 hrs; type: functional, organism-based
[26] = tested on: Klebsiella pneumoniae; assay: Antibacterial activity against Klebsiella pneumoniae at >100 ug/mL after 24 hrs by broth dilution method; type: functional, organism-based
[27] = tested on: Escherichia coli; assay: Antibacterial activity against Escherichia coli at >100 ug/mL after 24 hrs by broth dilution method; type: functional, organism-based

Row | SMILES | MIC [1] [µg/mL] | MIC [2] [µg/mL] | MIC [5] [µg/mL] | MIC [8] [µg/mL] | MIC [10] [µg/mL] | MIC [11] [µg/mL] | MIC [12] [µg/mL] | MIC [13] [µg/mL] | MIC [20] [µg/mL] | MIC [23] [µg/mL] | inhibition zone (IZ) [4] [mm] | inhibition zone (IZ) [7] [mm] | inhibition zone (IZ) [9] [mm] | inhibition zone (IZ) [14] [mm] | inhibition zone (IZ) [15] [mm] | inhibition zone (IZ) [16] [mm] | inhibition zone (IZ) [17] [mm] | inhibition zone (IZ) [18] [mm] | inhibition zone (IZ) [19] [mm] | inhibition zone (IZ) [22] [mm] | also measured
1 | O=C(O)c1cn(C2CC2)c2cc(N3CCNCC3)c(F)cc2c1=O [CIPROFLOXACIN] |  |  |  |  |  |  | 6.25 (≈ 18.9 µM) | 6.25 (≈ 18.9 µM) |  |  |  |  |  | 23 | 30 | 33 | 22 | 25 |  |  | 
2 | COc1ccc(-c2csc3nnc(Cc4ccc(Cl)cc4)c(=O)n23)cc1 | 12.5 (≈ 32.6 µM) |  | 12.5 (≈ 32.6 µM) | 12.5 (≈ 32.6 µM) |  | 12.5 (≈ 32.6 µM) | 6.25 (≈ 16.3 µM) | 25 (≈ 65.1 µM) | 6.25 (≈ 16.3 µM) | 25 (≈ 65.1 µM) | 14 | 11 |  | 12 |  | 14 | 19 | 10 | 19 | 9 | inhibition [25]: inactive; inhibition [27]: inactive
3 | O=c1c(Cc2ccc(Cl)cc2)nnc2scc(-c3cc(F)c(Cl)cc3Cl)n12 | 6.25 (≈ 14.2 µM) | 6.25 (≈ 14.2 µM) | 6.25 (≈ 14.2 µM) | 6.25 (≈ 14.2 µM) | 6.25 (≈ 14.2 µM) | 6.25 (≈ 14.2 µM) | 6.25 (≈ 14.2 µM) | 6.25 (≈ 14.2 µM) | 6.25 (≈ 14.2 µM) | 6.25 (≈ 14.2 µM) | 21 | 17 | 25 | 21 | 27 | 29 | 18 | 24 | 18 | 25 | 
4 | O=c1c(Cc2ccc(Cl)cc2Cl)nnc2scc(-c3ccc(Br)cc3)n12 | 6.25 (≈ 13.4 µM) | 6.25 (≈ 13.4 µM) | 12.5 (≈ 26.8 µM) | 25 (≈ 53.5 µM) | 12.5 (≈ 26.8 µM) | 6.25 (≈ 13.4 µM) | 6.25 (≈ 13.4 µM) | 6.25 (≈ 13.4 µM) | 6.25 (≈ 13.4 µM) |  | 11 | 7 | 12 | 21 | 26 | 29 | 18 | 20 | 16 |  | inhibition [6]: inactive

The remaining molecules from weak to strong by MIC [1], led by results:

Row | MIC [1] [µg/mL] | MIC [2] [µg/mL] | MIC [5] [µg/mL] | MIC [8] [µg/mL] | MIC [10] [µg/mL] | MIC [11] [µg/mL] | MIC [12] [µg/mL] | MIC [13] [µg/mL] | MIC [20] [µg/mL] | MIC [23] [µg/mL] | SMILES | inhibition zone (IZ) [4] [mm] | inhibition zone (IZ) [7] [mm] | inhibition zone (IZ) [9] [mm] | inhibition zone (IZ) [14] [mm] | inhibition zone (IZ) [15] [mm] | inhibition zone (IZ) [16] [mm] | inhibition zone (IZ) [17] [mm] | inhibition zone (IZ) [18] [mm] | inhibition zone (IZ) [19] [mm] | inhibition zone (IZ) [22] [mm] | also measured
5 | 6.25 (≈ 14.4 µM) | 25 (≈ 57.8 µM) | 12.5 (≈ 28.9 µM) | 6.25 (≈ 14.4 µM) | 25 (≈ 57.8 µM) | 12.5 (≈ 28.9 µM) | 6.25 (≈ 14.4 µM) | 6.25 (≈ 14.4 µM) |  |  | O=c1c(Cc2ccc(Cl)cc2)nnc2scc(-c3ccc(Br)cc3)n12 | 12 | 17 | 8 | 23 | 9 | 14 | 19 | 21 |  |  | inhibition [3]: inactive; inhibition [6]: inactive
6 | 6.25 (≈ 14.4 µM) | 12.5 (≈ 28.8 µM) |  |  |  | 6.25 (≈ 14.4 µM) |  | 6.25 (≈ 14.4 µM) | 12.5 (≈ 28.8 µM) | 12.5 (≈ 28.8 µM) | O=c1c(Cc2ccc(Cl)cc2Cl)nnc2scc(-c3ccc([N+](=O)[O-])cc3)n12 |  |  |  | 20 | 15 | 27 |  | 17 | 14 | 10 | inhibition [21]: inactive; inhibition [24]: inactive; inhibition [25]: inactive; inhibition [26]: inactive
